Laboratory results published in patent US9708316B2 (BRISTOL-MYERS SQUIBB COMPANY, priority 2014, dated 2017).

Experiments:
HIS-TGFβR2 WT = HIS-TGFβR2 WT (Homo sapiens, UniProt P37173); experiment: HTRF probe-displacement assay, HIS-TGFβR2 WT; type: binding
HIS-TGFβR1 T204D = biological target: T1, HIS-TGFβR1 T204D (Homo sapiens, UniProt P36897, T204D); experiment: HTRF probe-displacement assay, HIS-TGFβR1 T204D; type: binding; settings: read-out: TGFβR1 (μM) IC50
T1 sequence (P36897 34-503 T204D): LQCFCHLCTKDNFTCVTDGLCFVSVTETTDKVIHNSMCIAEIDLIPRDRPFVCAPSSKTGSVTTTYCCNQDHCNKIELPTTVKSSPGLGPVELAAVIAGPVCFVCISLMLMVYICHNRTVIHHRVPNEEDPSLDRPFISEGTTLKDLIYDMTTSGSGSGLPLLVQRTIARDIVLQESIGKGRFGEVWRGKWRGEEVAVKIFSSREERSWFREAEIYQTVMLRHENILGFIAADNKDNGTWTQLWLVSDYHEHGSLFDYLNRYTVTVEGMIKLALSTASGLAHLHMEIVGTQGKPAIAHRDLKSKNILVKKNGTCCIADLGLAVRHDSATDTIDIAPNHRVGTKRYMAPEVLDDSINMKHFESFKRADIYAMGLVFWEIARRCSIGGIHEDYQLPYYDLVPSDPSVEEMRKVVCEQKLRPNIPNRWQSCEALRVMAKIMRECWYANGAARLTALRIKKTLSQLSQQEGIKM

Chain of HIS-TGFβR2 WT (P37173 23-567): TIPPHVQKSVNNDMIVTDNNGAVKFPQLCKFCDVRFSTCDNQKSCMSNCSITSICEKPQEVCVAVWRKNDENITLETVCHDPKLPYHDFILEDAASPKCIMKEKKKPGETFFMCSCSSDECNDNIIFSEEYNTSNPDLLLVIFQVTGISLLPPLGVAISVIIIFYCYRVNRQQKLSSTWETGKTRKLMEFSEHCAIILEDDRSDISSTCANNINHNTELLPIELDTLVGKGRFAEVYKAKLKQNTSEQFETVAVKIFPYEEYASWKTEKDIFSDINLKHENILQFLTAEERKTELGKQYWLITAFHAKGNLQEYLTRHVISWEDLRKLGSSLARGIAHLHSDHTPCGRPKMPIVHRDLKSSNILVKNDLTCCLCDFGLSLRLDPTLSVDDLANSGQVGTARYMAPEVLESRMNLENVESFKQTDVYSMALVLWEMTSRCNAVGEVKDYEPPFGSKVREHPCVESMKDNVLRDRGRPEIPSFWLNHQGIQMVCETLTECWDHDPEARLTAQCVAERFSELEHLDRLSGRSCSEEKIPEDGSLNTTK

Row | Structure (SMILES) | IC50 (HIS-TGFβR2 WT) [µM] | IC50 (HIS-TGFβR1 T204D) [µM]
1 | CC(=O)Nc1cc(-c2[nH]c3cccnc3c2-c2ccc(Cl)nc2)ccn1 [Example 9, N-{4-[3-(6-Chloropyridin-3-yl)-1H-pyrrolo[3,2-b]pyridin-2-yl]pyridin-2-yl}acetamide] | 0.33 | 0.023
2 | COc1ccc(-c2c(-c3ccnc(NC(C)=O)c3)[nH]c3ccc(F)nc23)nc1 [Example 37, N-{4-[5-Fluoro-3-(5-methoxypyridin-2-yl)-1H-pyrrolo[3,2-b]pyridin-2-yl]pyridin-2-yl}acetamide] | > 15 | 0.002
3 | O=C(CNCCCN1CCOCC1)Nc1cc(-c2[nH]c3cc(Cl)cnc3c2-c2ccc(F)cn2)ccn1 [Example 89, N-{4-[6-Chloro-3-(5-fluoropyridin-2-yl)-1H-pyrrolo[3,2-b]pyridin-2-yl]pyridin-2-yl}-2-{[3-(morpholin-4-yl)propyl]amino}acetamide] | 4.81 | 0.003
4 | COc1cnc2c(-c3cccc(Cl)n3)c(-c3ccnc(NC(C)=O)c3)[nH]c2c1 [Example 48, N-{4-[3-(6-Chloropyridin-2-yl)-6-methoxy-1H-pyrrolo[3,2-b]pyridin-2-yl]pyridin-2-yl}acetamide] | 0.076 | 0.001
5 | COc1ccnc(-c2c(-c3ccnc(NC(C)=O)c3)[nH]c3cccnc23)c1 [Example 28, N-{4-[3-(4-Methoxypyridin-2-yl)-1H-pyrrolo[3,2-b]pyridin-2-yl]pyridin-2-yl}acetamide] | 6.05 | 0.2
6 | COC(=O)Nc1cc(-c2[nH]c3cc(Cl)cnc3c2-c2ccc(OC)cn2)ccn1 [Example 87, Methyl N-{4-[6-chloro-3-(5-methoxypyridin-2-yl)-1H-pyrrolo[3,2-b]pyridin-2-yl]pyridin-2-yl}carbamate] | > 15 | 0.002
7 | CC(=O)Nc1cc(-c2[nH]c3cc(Cl)cnc3c2-c2cccc(NCCO)n2)ccn1 [Example 68, N-[4-(6-Chloro-3-{6-[(2-hydroxyethyl)amino]pyridin-2-yl}-1H-pyrrolo[3,2-b]pyridin-2-yl)pyridin-2-yl]acetamide] | > 15 | 0.96
8 | COc1ccc(-c2c(-c3ccnc(NC(C)=O)c3)[nH]c3cc(OC4COC4)cnc23)nc1 [Example 98, N-(4-(3-(5-Methoxypyridin-2-yl)-6-(oxetan-3-yloxy)-1H-pyrrolo[3,2-b]pyridin-2-yl)pyridin-2-yl)acetamide] | > 15 | 0.002

The next lines start with the values.

Row | IC50 (HIS-TGFβR2 WT) [µM] | IC50 (HIS-TGFβR1 T204D) [µM] | Structure (SMILES)
9 | 0.12 | 0.008 | COc1ccc(-c2c(-c3ccnc(NC(C)=O)c3)[nH]c3c(C(C)=O)ccnc23)cn1 [Example 298, N-(4-(7-Acetyl-3-(6-methoxypyridin-3-yl)-1H-pyrrolo[3,2-b]pyridin-2-yl)pyridin-2-yl)acetamide]
10 | 1.12 | 0.002 | COc1ccc(-c2c(-c3ccnc(NC(=O)CN4CCOCC4)c3)[nH]c3cc(Cl)cnc23)cn1 [Example 290, N-(4-(6-Chloro-3-(6-methoxypyridin-3-yl)-1H-pyrrolo[3,2-b]pyridin-2-yl)pyridin-2-yl)-2-morpholinoacetamide]
11 | > 15 | 0.0353 | COc1ccc(-c2c(-c3ccnc(NC(C)=O)c3)[nH]c3cc(N(C)CCO)cnc23)nc1 [Example 165, N-(4-(6-((2-Hydroxyethyl)(methyl)amino)-3-(5-methoxypyridin-2-yl)-1H-pyrrolo[3,2-b]pyridin-2-yl)pyridin-2-yl)acetamide]
12 | > 15 | 0.001 | COc1ccc(-c2c(-c3ccnc(NC(C)=O)c3)[nH]c3cc(C(O)C(F)(F)C(N)=O)cnc23)nc1 (stereo not shown) [Example 295, 3-(2-(2-Acetamidopyridin-4-yl)-3-(5-methoxypyridin-2-yl)-1H-pyrrolo[3,2-b]pyridin-6-yl)-2,2-difluoro-3-hydroxypropanamide]
13 | > 15 | 0.001 | CCCc1ccnc2c(-c3cccc(C(F)F)n3)c(-c3ccnc(NC(C)=O)c3)[nH]c12 [Example 132, N-(4-{3-[6-(Difluoromethyl)pyridin-2-yl]-7-propyl-1H-pyrrolo[3,2-b]pyridin-2-yl}pyridin-2-yl)acetamide]
14 | 0.637 | 0.003 | CC(=O)Nc1cc(-c2[nH]c3c(CO)ccnc3c2-c2cccc(F)n2)ccn1 [Example 275, N-(4-(3-(6-Fluoropyridin-2-yl)-7-(hydroxymethyl)-1H-pyrrolo[3,2-b]pyridin-2-yl)pyridin-2-yl)acetamide]
